Where “and” joins values, the source holds several entries; their conditions need not be identical. Equal values may be shown once. Read-outs that look alike come from different tables or passages of the source.

We go through two compounds from paper PMC11680018, “Study of Cytotoxicity of Spiro-Fused [3-Azabicyclo[3.1.0]hexane]oxindoles and Cyclopropa[a]pyrrolizidine-oxindoles Against Tumor Cell Lines” (Pharmaceuticals, 2024).

The test system of assay [1] is K562, Jurkat, HeLa, Sk-mel-2, MCF-7 and CT26 cell lines. Nature of the assay: MTS cell proliferation assay, panel of cell lines (summary statements). Type of assay: cell-based. The protocol:
(§1) Cancer cell lines are valuable in vitro model systems that are widely used in cancer research and drug discovery. Their use is mainly linked to their possibility to provide for experimental purposes an unlimited source of biological material. Here, the 24 and 72 h in vitro MTS assay was used to determine the antiproliferative activity of synthesized spiro-fused cyclopropa[a]pyrrolizidine-2,3′-oxindoles and [3-azabicyclo[3.1.0]hexane]-oxindoles against human erythroleukemia (K562), acute T cell leukemia (Jurkat), cervical carcinoma (HeLa), melanoma (Sk-mel-2), breast cancer adenocarcinoma (MCF-7) as well as mouse colon carcinoma (CT26) cell lines. […] The full results of these investigations are presented in the Supporting Information Figures S1–S6. […] An evaluation of the cytotoxicity of the selected compounds towards normal cells (peripheral blood mononuclear cells) was performed additionally to understand their respective relative selectivities. The selectivity index was obtained using the ratio of measured cytotoxicity between the PBMC cells and each of the cancer cell lines, and the results are presented in Table 3.
(§2) The human erythroleukemia (K-562), cervical carcinoma (HeLa) as well as mouse colon carcinoma (CT26) cell lines were obtained from the Bank of Cell Cultures of the Institute of Cytology of the Russian Academy of Sciences; the human melanoma (Sk-mel-2) cell line was obtained from the Bank of Cell Cultures of the Institute of Cytology and Genetics, Siberian Branch of the Russian Academy of Sciences. The acute T cell leukemia (Jurkat) cell line was obtained from the Bank of Cell Cultures of the Institute of Immunology of the Russian Academy of Medical Sciences. The peripheral blood mononuclear cells (PBMC) were isolated from the blood of healthy donors. K-562, Jurkat, MCF-7, PBMC and CT26 cells were grown on RPMI medium (Hyclone, GE Healthcare Life Sciences, Logan, UT, USA) supplemented with 10% (v/v) fetal bovine serum (Hyclone, GE Healthcare Life Sciences, Logan, UT, USA) and gentamicin (Sigma-Aldrich, St. Louis, MO, USA) at 37 °C in a humidified atmosphere with 5% CO2. HeLa and Sk-mel-2 cells were cultured with the same supplements and conditions in DMEM medium (Hyclone, GE Healthcare Life Sciences, Logan, UT, USA).
(§3) To evaluate the in vitro toxicity of the compounds synthesized, cells were seeded into 96-well plates at a density of 5 × 10^3 cells per well. On the next day, the tested compounds were added to the wells at concentrations ranging from 1 to 30 μg/mL, followed by incubation for 1 and 3 days. Cell proliferation was determined by adding 20 μL of MTS reagent (BioVision, Milpitas, CA, USA) stock solution per well. The plates were incubated for 2 h at 37 °C in a humidified, 5% CO2 atmosphere. The plates were then read at 495 nm using a plate spectrophotometer (Multiskan GO, Thermo Fisher Scientific, Waltham, MA, USA). All samples were measured in triplicate.
In general terms: Tetrazolium assays rely on reduction of a dye to a coloured formazan, in cell work by metabolically active cells.

Assay [2] relates to HeLa cells actin cytoskeleton. The assay is described as follows: Actin cytoskeleton staining, confocal microscopy, HeLa. Type of assay: cell-based, human. Conditions: 10 μg/mL, 24 h; for HeLa cells with filopodia-like deformations: control cells 93%, lowest value over the compounds; for HeLa cells with granular actin distributed diffusely in the cytoplasm (stress fibers disappeared): maximum over the compounds. The method, then:
It was found using confocal microscopy that incubation with spiro-fused [3-azabicyclo[3.1.0]hexane]oxindoles 4, 8, 17, 18, 22, 24 and cyclopropa[a]pyrrolizidine-2,3′-oxindole 2 led to significant changes in the HeLa cells’ actin cytoskeleton structure leading to the disappearance of stress fibers (granular actin was distributed diffusely in the cytoplasm in up to 38% of treated cells) and changes in the number of filopodia-like deformations (reduced from 93% in control cells to 64% after treatment). The impact on the Sk-mel-2 cells’ actin cytoskeleton structure was even greater: granular actin was distributed diffusely in the cytoplasm in up to 90% of treated cells while the number of filopodia-like deformations was reduced by up to 23%. Such changes in the cytoskeleton may indicate a change in the motor activity of cells, which may indicate a decrease in the ability of tumor cells to metastasize.
HeLa cells were seeded at a density of 2 × 10^5 cells per dish onto a petri dish with cover slips and incubated for 24 h. After that, cells were treated with chosen compounds (10 μg/mL) for 24 h. The medium was removed and cells were fixed with 4% paraformaldehyde (Sigma-Aldrich, St. Louis, MO, USA), washed three times with PBS, and permeabilized with 0.3% Triton-X100 (Sigma-Aldrich, St. Louis, MO, USA). The cells were rinsed three times with PBS. Actin filaments (microfilaments) were stained with rhodamine–phalloidin (Invitrogen, Carlsbad, CA, USA) at 37 °C for 15 min. The samples were rinsed three times with PBS, followed by embedding in Fluoroshield medium (Sigma-Aldrich, St. Louis, MO, USA). Cells were imaged using an Axio Observer Z1 confocal microscope (Carl Zeiss MicroImaging GmbH, Jena, Germany). In each experiment, at least 30 cells were imaged. Images were analyzed by a pathologist blinded to the treatment mode used for each group using ImageJ software, 1.52v.

The test system of assay [3] is melanoma (Sk-mel-2) cell line. The assay is described as follows: MTS cell proliferation assay, Sk-mel-2. Type of assay: cell-based, human. The conditions noted are these: for IC50: Homo sapiens, MTS; for SI (selectivity index) Sk-mel-2: ratio of cytotoxicity PBMC / Sk-mel-2, calculated at 72 h.
Assay [4] has as its system mouse colon carcinoma (CT26) cell line. The assay is described as follows: MTS cell proliferation assay, CT26. Type of assay: cell-based. Conditions: for IC50: Mus musculus, MTS; for SI (selectivity index) CT26: ratio of cytotoxicity PBMC / CT26, calculated at 72 h.
Assay [5] has as its system breast cancer adenocarcinoma (MCF-7) cell line. The assay is described as follows: MTS cell proliferation assay, MCF-7. The conditions noted are these: for IC50: Homo sapiens, MTS; for SI (selectivity index) MCF-7: ratio of cytotoxicity PBMC / MCF-7, calculated at 72 h. Type of assay: cell-based, human. The method, then: as §1, §2, §3
Assay [6] concerns peripheral blood mononuclear cells (PBMC). The assay is described as follows: MTS cytotoxicity towards normal cells, PBMC. Type of assay: cell-based. Conditions: Homo sapiens. The method, then:
as §1, §2, §3

For assay [7], the system named is human erythroleukemia (K562) cell line. The assay is described as follows: MTS cell proliferation assay, K562. Type of assay: cell-based. Conditions: for IC50: Homo sapiens, MTS; for SI (selectivity index) K562: ratio of cytotoxicity PBMC / K562, calculated at 72 h.
For assay [8], the system named is acute T cell leukemia (Jurkat) cell line. Nature of the assay: MTS cell proliferation assay, Jurkat. Type of assay: cell-based, human. The conditions noted are these: for IC50: Homo sapiens, Jurkat, MTS; for SI (selectivity index) Jurkat: ratio of cytotoxicity PBMC / Jurkat, calculated at 72 h. The protocol:
as §1, §2, §3

Assay [9] has as its system cervical carcinoma (HeLa) cell line. The assay is described as follows: MTS cell proliferation assay, HeLa. Type of assay: cell-based, human. Conditions: for IC50: Homo sapiens, HeLa, MTS; for SI (selectivity index) HeLa: ratio of cytotoxicity PBMC / HeLa, calculated at 72 h.
The mark [10] stands for this setting: read-out: IC50 Sk-mel-2 24 h, Sk-mel-2, 24 h.
Setting [11] is: Sk-mel-2, 72 h, read-out: IC50 Sk-mel-2 72 h.
[12] abbreviates: read-out: IC50 CT26 24 h, CT26, 24 h.
Where [13] appears, read: CT26, 72 h, read-out: IC50 CT26 72 h.
The mark [14] stands for this setting: MCF7, read-out: IC50 MCF-7 24 h, MCF-7, 24 h.
Where [15] appears, read: MCF7, MCF-7, 72 h, read-out: IC50 MCF-7 72 h.
Setting [16] is: read-out: IC50 K562 24 h, K562, 24 h.
The mark [17] stands for this setting: K562, 72 h, read-out: IC50 K562 72 h.
Where [18] appears, read: read-out: IC50 Jurkat 24 h, 24 h.
[19] abbreviates: 72 h, read-out: IC50 Jurkat 72 h.

The IC50 is the concentration needed to halve the response being measured. `CC[C@H](C)C1NC2(C(=O)Nc3ccccc32)C2(c3ccccc3)C(C(=O)OC)C12c1ccccc1` (stereo partly shown) [Compound 4]: the IC50 in assay [1] (72 h, range over four cell lines and compounds, read-out: IC50 against the Jurkat, K-562, HeLa and Sk-mel-2 cell lines) is 2 to 10 µM; in assay [3] (setting [10]) it was > 40 µM; in assay [3] (setting [11]), 9 ± 1 µM; in [4] (setting [12]) it was > 40 µM; in assay [4] (setting [13]), 21 ± 2 µM; in assay [5] (setting [14]), > 40 µM. Besides, the concentration for half-maximal inhibition (IC50) was > 40 µM in assay [5] (setting [15]); 92 ± 9 µM in assay [6] (72 h, read-out: IC50 PBMC 72 h); 174 ± 17 µM in assay [6] (read-out: IC50 PBMC 24 h, 24 h); 32 ± 2 µM in assay [7] (setting [16]); 6 ± 1 µM in assay [7] (setting [17]); 11 ± 1 µM in assay [8] (setting [18]). Further, the IC50 is 4 ± 1 µM in [8] (setting [19]); > 40 µM in assay [9] (read-out: IC50 HeLa 24 h, 24 h); 9 ± 1 µM in assay [9] (72 h, read-out: IC50 HeLa 72 h). Besides, in [2], the “HeLa cells with filopodia-like deformations” value is ≥ 64%. For the same compound, the “HeLa cells with granular actin distributed diffusely in the cytoplasm (stress fibers disappeared)” value in assay [2] is given as “up to 38%”. For the same compound, the “SI (selectivity index) Sk-mel-2” value in assay [3] is given as 11. Further, in [4], the “SI (selectivity index) CT26” value was 4. Also, the “SI (selectivity index) MCF-7” value in [5] is 2. The “SI (selectivity index) K562” value in assay [7] is reported as 14. The “SI (selectivity index) Jurkat” value in assay [8] is on record as 22. Further, in assay [9], the “SI (selectivity index) HeLa” value was 11.

On to `O=C1Nc2ccc([N+](=O)[O-])cc2C12N1CCCC1C1(c3ccccc3)C(c3ccccc3)C12c1ccccc1` (stereo not shown) [Compound 2], for which the half-maximal inhibitory concentration (IC50) was 2 µg/mL to 12 µg/mL and 4 µM to 23 µM in [1] (range over cell lines, except for the breast cancer cell line, read-out: IC50 over the tested cell lines); 14 ± 1 µM in assay [3] (setting [10]); 12 ± 1 µM in assay [3] (setting [11]); > 40 µM in assay [4] (setting [12]); 23 ± 2 µM in assay [4] (setting [13]); > 40 µM in assay [5] (setting [14]). Moreover, the half-inhibitory concentration (IC50) in assay [5] (setting [15]) was > 40 µM; in assay [6] (72 h, read-out: IC50 PBMC 72 h) it was 84 ± 8 µM; in [6] (read-out: IC50 PBMC 24 h, 24 h), 121 ± 8 µM; in assay [7] (setting [16]), 29 ± 2 µM; in assay [7] (setting [17]), 8 ± 1 µM; in assay [8] (setting [18]) it was 18 ± 2 µM. In addition, the half-inhibitory concentration (IC50) is 4 ± 1 µM in assay [8] (setting [19]); > 40 µM in assay [9] (read-out: IC50 HeLa 24 h, 24 h); 12 ± 1 µM in assay [9] (72 h, read-out: IC50 HeLa 72 h). Also, the “HeLa cells with filopodia-like deformations” value in [2] was ≥ 64%. For the same compound, the “HeLa cells with granular actin distributed diffusely in the cytoplasm (stress fibers disappeared)” value in [2] is reported as “up to 38%”. Further, in [3], the “SI (selectivity index) Sk-mel-2” value is 7. Also, the “SI (selectivity index) CT26” value in [4] is listed as 4. Besides, the “SI (selectivity index) MCF-7” value in [5] is given as 2. The “SI (selectivity index) K562” value in assay [7] is given as 11. In [8], the “SI (selectivity index) Jurkat” value was 22. In assay [9], the “SI (selectivity index) HeLa” value was 7.
